In patent US20250368616A1, “NITROGEN-CONTAINING HETEROCYCLIC DERIVATIVE INHIBITOR, AND PREPARATION METHOD THEREFOR AND USE THEREOF” (SHANGHAI HANSOH BIOMEDICAL CO., LTD., priority 2021, published 2025):

How the values were obtained:
[1] = target: EGFR del19/T790M/C797S mutant kinase (Homo sapiens, UniProt P00533, C797S/DEL746-750/T790M); test: HTRF kinase assay, EGFR del19/T790M/C797S mutant kinase; type: biochemical; settings: 120 minutes at room temperature
Text: (§1) Test Example 1. Determination of the Inhibitory Effect of the Compounds of the Present Invention on the Activity of EGFR del19/T790M/C797S and EGFR L858R/T790M/C797S Mutant Kinases
(§2) Experimental objective: The objective of this test example is to test the inhibitory activity of the compounds on the activity of EGFR del19/T790M/C797S and EGFR L858R/T790M/C797S mutant kinases.
(§3) Experimental method: This experiment used Cisbio's HTRF kinase assay method (Cisbio #62TK0PEB), wherein a catalytic reaction occurred between the substrate polypeptide TK and ATP in the presence of the tyrosine kinase with EGFR del19/T790M/C797S or EGFR L858R/T790M/C797S mutation, the substance was phosphorylated, and the activity of the kinase was characterized by measuring the content of the phosphorylated substrate generated during the reaction, and the half inhibitory concentration IC50 of the compound on the activity of EGFR del19/T790M/C797S or EGFR L858R/T790M/C797S mutant kinase was obtained.
(§4) Specific Experimental Operations were as Follows: • the kinase reaction was carried out in a white 384-well plate (Perkin Elmer #6008280), and 1-5 μL of compounds of different concentrations which were diluted with 1% DMSO-containing ddH2O were added; to the positive control wells were added 1-5 μL of 1% DMSO-containing ddH2O, followed by 1-5 μL of 0.5-5 nM 4×EGFR del19/T790M/C797S or EGFR L858R/T790M/C797S mutant kinase solution which was diluted with Dilution buffer (5× kinase buffer, MgCl2 6.65 Mm, MnCl2 1.33 mM, DTT 1.33 mM); to the negative control wells were added 1-5 μL of Dilution buffer; to all the wells were added 1-5 μL of 4 μM 4× substrate TK solution which was prepared with 10× Dilution buffer, and finally added 1-5 μL of 24 μM 4×ATP solution which was diluted with Dilution buffer to start the reaction; after reacting at room temperature for 120 minutes, 10 μL of detection solution (TK antibody 16 nM, XL665 0.5 μM) was added to each well, same was reacted at room temperature in the dark for 20 minutes, and then the […] was detected using a BioTek Synergy H1 microplate reader.
(§5) The percent inhibition data for compound-treated wells was calculated according to the positive control wells (DMSO control wells) and negative control wells (no kinase added) on the plate {% inhibition rate=100−[(test compound value−negative control value)]/(positive control value−negative control value)×100}. GraphPad prism was used to fit different concentrations and corresponding percent inhibition rate data to a 4-parameter nonlinear logistic equation to calculate IC50 values.

[2] = target: EGFR L858R/T790M/C797S mutant kinase (Homo sapiens (Human), UniProt P00533, C797S/L858R/T790M); test: HTRF kinase assay, EGFR L858R/T790M/C797S mutant kinase; type: biochemical; settings: 120 minutes at room temperature
EGFR L858R/T790M/C797S mutant kinase, sequence (P00533 25-1210 T790M/C797S/L858R): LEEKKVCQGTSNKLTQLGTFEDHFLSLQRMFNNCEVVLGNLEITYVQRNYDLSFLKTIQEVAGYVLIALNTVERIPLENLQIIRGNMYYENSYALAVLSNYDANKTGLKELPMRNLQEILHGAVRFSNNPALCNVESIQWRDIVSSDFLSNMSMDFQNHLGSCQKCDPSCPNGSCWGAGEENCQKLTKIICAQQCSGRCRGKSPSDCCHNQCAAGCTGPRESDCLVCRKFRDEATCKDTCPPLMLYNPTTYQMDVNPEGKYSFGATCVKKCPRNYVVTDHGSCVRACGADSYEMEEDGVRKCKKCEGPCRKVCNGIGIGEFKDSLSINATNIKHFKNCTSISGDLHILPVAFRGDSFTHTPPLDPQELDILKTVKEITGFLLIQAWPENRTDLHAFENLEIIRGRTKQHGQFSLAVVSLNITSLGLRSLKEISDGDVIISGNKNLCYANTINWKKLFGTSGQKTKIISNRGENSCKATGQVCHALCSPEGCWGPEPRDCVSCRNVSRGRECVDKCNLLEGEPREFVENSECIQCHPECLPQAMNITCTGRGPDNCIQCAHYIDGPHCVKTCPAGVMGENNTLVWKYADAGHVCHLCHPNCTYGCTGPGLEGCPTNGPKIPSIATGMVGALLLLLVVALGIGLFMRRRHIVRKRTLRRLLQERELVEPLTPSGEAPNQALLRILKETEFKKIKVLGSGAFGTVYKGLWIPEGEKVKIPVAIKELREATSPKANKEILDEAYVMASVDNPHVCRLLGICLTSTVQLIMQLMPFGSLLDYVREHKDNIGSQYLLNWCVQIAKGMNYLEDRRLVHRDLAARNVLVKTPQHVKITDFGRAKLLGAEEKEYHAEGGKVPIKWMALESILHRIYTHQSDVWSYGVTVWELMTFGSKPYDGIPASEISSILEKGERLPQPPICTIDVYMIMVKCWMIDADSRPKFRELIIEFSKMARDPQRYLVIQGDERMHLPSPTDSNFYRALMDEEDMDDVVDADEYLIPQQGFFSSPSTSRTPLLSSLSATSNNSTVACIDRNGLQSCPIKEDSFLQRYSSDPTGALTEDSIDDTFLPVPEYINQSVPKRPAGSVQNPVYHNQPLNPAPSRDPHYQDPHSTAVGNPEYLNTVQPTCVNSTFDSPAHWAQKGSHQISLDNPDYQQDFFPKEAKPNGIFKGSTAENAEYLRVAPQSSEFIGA
Text: as §1, §2, §3, §4, §5

[3] = test system: Ba/F3 EGFR Del19/T790M/C797S cells; test: Cell proliferation inhibition assay (Cell Titer-Glo), Ba/F3 EGFR Del19/T790M/C797S; type: cell-based; settings: 72 hours, read-out: Ba/F3 EGFR Del19_T790M_C797S IC50
Text: Test Example 2: Cell Proliferation Inhibition Assay
Experimental objective: The objective of this test example is to test the inhibitory activity of compounds on the proliferation of different EGFR C797S drug-resistant mutant cell lines Ba/F3 EGFR Del19/T790M/C797S, Ba/F3 EGFR L858R/T790M/C797S, and Ba/F3 EGFR Del19/C797S.
• Ba/F3 EGFR Del19/T790M/C797S cells were purchased from KYinno Biotechnology Co., Ltd.; • Ba/F3 EGFR Del19/C797S cells were purchased from CoBioer Biosciences Co., Ltd.; • Ba/F3 EGFR L858R/T790M/C797S cells were purchased from CoBioer Biosciences Co., Ltd.; • Cell Titer-Glo was purchased from Promega, with a catalog number of G7573; • RPMI 1640 was purchased from Gibco, with a catalog number of 22400089; • FBS was purchased from Gibco, with a catalog number of 10091148; • cell culture plates were purchased from Corning, with a catalog number of 3610.
The inhibitory activity of the compound on the proliferation of different EGFR C797S drug-resistant mutant cell lines was detected using the Cell Titer-Glo method. The different cell lines were cultured in RPMI 1640 complete culture medium containing 10% FBS under conditions of 37° C. and 5% CO2, the cells were collected by centrifugation when growing to a certain density, and adjusted to appropriate cell density after counting, the cells were spread on a white 96-well plate at 90 μL/well, and cultured in a 37° C., 5% CO2 incubator overnight, prepared compound solutions of different concentrations were added at 10 μL/well, corresponding solvent controls were set, and all wells were cultured in a 37° C., 5% CO2 incubator for 72 hours, 50 μL of CellTiter-Glo solution was added to each well, shook and mixed evenly, and incubated in the dark for 10 minutes, and a BioTek Synergy H1 microplate reader was used for reading.
The luminescence signal value was used to calculate the inhibition rate. Graphpad Prism software was used to fit the concentration and inhibition rate to a nonlinear regression curve, so as to obtain the IC50 value, as shown in Tables 3 and 4 below for details.

[4] = test system: Ba/F3 EGFR Del19/C797S cells; test: Cell proliferation inhibition assay (Cell Titer-Glo), Ba/F3 EGFR Del19/C797S; type: cell-based; settings: 72 hours, read-out: Ba/F3 EGFR Del19_C797S IC50
Summary of the method: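 Ba/F3 cells carrying EGFR Del19/T790M/C797S or Del19/C797S, grown in RPMI 1640 with 10% FBS, were plated overnight and then exposed to serially diluted compound for 72 h at 37° C, 5% CO2. Viability was read by CellTiter-Glo luminescence; IC50 came from a nonlinear fit of inhibition rate against concentration.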

EGFR del19/T790M/C797S mutant kinase, sequence (P00533 with tags, fused parts or gaps C797S/DEL746-750/T790M limits assumed): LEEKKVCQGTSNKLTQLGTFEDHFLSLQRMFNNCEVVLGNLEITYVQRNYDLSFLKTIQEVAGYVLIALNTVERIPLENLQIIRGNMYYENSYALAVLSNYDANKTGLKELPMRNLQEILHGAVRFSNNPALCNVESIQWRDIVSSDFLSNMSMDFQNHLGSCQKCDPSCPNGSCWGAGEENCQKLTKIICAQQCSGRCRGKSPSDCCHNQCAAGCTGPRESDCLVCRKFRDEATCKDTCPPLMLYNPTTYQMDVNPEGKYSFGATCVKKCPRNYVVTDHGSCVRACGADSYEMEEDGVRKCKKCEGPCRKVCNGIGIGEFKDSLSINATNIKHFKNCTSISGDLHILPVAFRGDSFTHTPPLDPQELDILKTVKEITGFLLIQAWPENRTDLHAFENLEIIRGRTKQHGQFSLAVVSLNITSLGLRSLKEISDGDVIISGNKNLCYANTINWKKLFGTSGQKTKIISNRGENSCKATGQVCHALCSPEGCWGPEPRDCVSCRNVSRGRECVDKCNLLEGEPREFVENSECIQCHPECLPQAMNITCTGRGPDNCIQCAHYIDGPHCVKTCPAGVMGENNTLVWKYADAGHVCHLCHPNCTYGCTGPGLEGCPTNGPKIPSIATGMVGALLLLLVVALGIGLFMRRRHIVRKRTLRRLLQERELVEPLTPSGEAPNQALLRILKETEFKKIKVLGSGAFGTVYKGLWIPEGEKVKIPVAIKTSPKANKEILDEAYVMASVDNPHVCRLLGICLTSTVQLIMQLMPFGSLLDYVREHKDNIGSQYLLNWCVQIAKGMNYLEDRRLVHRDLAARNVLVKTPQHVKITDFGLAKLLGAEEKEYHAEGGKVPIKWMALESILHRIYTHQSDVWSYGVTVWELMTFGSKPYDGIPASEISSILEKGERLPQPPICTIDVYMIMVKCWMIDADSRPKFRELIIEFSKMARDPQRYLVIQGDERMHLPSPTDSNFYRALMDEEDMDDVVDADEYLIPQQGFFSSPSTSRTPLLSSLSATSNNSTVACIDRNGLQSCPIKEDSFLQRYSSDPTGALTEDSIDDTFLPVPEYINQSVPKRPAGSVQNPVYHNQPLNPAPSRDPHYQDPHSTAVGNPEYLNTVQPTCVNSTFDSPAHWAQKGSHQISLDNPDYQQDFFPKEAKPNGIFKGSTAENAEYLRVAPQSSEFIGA

Row | IC50 [1] | IC50 [2] | IC50 [3] | IC50 [4] | SMILES
1 | 0.58 nM | 0.51 nM | 10 nM | 14 nM | CC(C)c1ccc(N2CC(CS(C)(=O)=O)C2)c2cnc(Nc3ccnc(-c4cnn(S(=O)(=O)C5CC5)c4)n3)cc12 [Example 1, N-(2-(1-(cyclopropylsulfonyl)-1H-pyrazol-4-yl)pyrimidin-4-yl)-5-isopropyl-8-(3-((methanesulfonyl)methyl)azetidin-1-yl)isoquinolin-3-amine]
2 | 3.9 nM | 0.6 nM |  | 96 nM | CC(C)c1ccc(N2C[C@H](CS(C)(=O)=O)[C@H]2C)c2cnc(Nc3ccnc(-c4cnn(CC5CCO5)c4)n3)cc12 (stereo partly drawn) [Example 21, 5-isopropyl-8-((2R,3S)-2-methyl-3-((methanesulfonyl)methyl)azetidin-1-yl)-N-(2-(1-(oxetan-2-ylmethyl)-1H-pyrazol-4-yl)pyrimidin-4-yl)isoquinolin-3-amine]
3 | 3.6 nM | 0.3 nM | 10 nM | 29 nM | CC(C)c1ccc(N2C[C@H](CS(C)(=O)=O)[C@H]2C)c2cnc(Nc3ccnc(-c4cnn(C)c4)n3)cc12 [Example 24, 5-isopropyl-N-(2-(1-methyl-1H-pyrazol-4-yl)pyrimidin-4-yl)-8-((2R,3S)-2-methyl-3-((methanesulfonyl)methyl)azetidin-1-yl)isoquinolin-3-amine]
4 | 8.9 nM | 1.9 nM |  | 40 nM | CC(C)c1ccc(N2C[C@H](CS(C)(=O)=O)[C@H]2C)c2cnc(Nc3ccnc(-c4cnn(CCF)c4)n3)cc12 [Example 27, N-(2-(1-(2-fluoroethyl)-1H-pyrazol-4-yl)pyrimidin-4-yl)-5-isopropyl-8-((2R,3S)-2-methyl-3-((methanesulfonyl)methyl)azetidin-1-yl)isoquinolin-3-amine]
